Experimental data published in patent publication US10940201B2, “Nucleic acid derivative having immunostimulatory activity” (Shionogi & Co., Ltd., priority 2015, dated 2021).
Read-outs that look alike come from different tables or passages of the source.

Target: T1, human TLR9 (Homo sapiens, UniProt Q9NR96)
T1 construct: host or cells: HEK-Blue hTLR9 cells (HEK293)
T1 sequence (Q9NR96 26-1032): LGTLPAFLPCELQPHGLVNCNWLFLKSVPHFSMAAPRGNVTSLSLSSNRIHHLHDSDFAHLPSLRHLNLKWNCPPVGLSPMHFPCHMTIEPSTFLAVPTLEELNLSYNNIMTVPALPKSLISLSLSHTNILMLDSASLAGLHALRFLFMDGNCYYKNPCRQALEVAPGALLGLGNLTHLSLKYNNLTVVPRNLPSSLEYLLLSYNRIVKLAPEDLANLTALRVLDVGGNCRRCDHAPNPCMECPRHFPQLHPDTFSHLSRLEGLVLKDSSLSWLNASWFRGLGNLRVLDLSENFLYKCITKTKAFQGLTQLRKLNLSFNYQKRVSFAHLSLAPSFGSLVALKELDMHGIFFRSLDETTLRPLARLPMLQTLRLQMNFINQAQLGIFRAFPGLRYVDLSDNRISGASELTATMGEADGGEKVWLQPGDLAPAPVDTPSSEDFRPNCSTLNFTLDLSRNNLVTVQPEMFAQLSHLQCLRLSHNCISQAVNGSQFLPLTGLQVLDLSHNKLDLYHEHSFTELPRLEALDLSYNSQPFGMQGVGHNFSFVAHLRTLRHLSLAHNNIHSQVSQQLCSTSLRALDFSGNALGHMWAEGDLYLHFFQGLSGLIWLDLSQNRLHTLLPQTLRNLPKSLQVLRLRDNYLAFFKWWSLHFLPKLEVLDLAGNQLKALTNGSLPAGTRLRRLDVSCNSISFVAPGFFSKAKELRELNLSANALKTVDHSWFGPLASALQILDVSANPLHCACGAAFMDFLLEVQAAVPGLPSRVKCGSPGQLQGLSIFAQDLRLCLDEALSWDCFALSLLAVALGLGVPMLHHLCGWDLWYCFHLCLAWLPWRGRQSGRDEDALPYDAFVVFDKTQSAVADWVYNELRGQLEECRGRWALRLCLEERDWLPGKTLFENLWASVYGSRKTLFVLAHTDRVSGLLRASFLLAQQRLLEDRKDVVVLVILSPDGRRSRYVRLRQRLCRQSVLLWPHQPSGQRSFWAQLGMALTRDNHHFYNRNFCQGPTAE
Test: Reporter assay with HEK-Blue hTLR9 cells (TLR9 agonist activity)
Assay type: cell-based
Details: HEK-Blue hTLR9 cells, 16 hours
Protocol: HEK-Blue™ hTLR9 cells (Invivogen) used for the reporter assay were made by introducing human TLR9 gene and a reporter gene that secretory alkaline phosphatase gene bound to NF-kB-AP-1 binding region sequence in HEK293 cells, and are the cells stably expressing the both genes. 3.6×10^4 of the cells suspended in HEK-Blue™ Detection ([…]) comprising substrates against the alkaline phosphatase were seeded on the 96 well plate, and 3 nM to 30 μM of a lipid binding double-stranded oligonucleotide of the present invention, the known CpG oligonucleotides (ODN2006, SEQ-49), or adjuvant based on design in Patent Document 1, i.e., ssCpG ODN introducing a lipid ligand (SEQ-142, 143 or 144) was added. After culturing in a 37° C., 5% CO2 incubator for 16 hours, absorbency at 620 nm was measured using the culture supernatant developed a color. The result value was analyzed with TIBCO Spotfire software, and calculated the 50% effective concentration (EC50) of each oligonucleotide.

Question: With ODN2006 [SEQ-49] as the substance, how does the EC50 (Experiment 1 (Table 28), read-out: EC50) read?
Answer: 467 nM

Question: And the EC50 (Experiment 1, Table 28, read-out: EC50 value)?
Answer: ~467 nM

Question: And the EC50 (Experiment 2 (Table 29), read-out: EC50)?
Answer: 245 nM

Question: And the EC50 (Experiment 2, Table 29, read-out: EC50 value)?
Answer: ~245 nM
